The text below walks through data of PMC9780888, “4-Isobutylmethcathinone—A Novel Synthetic Cathinone with High In Vitro Cytotoxicity and Strong Receptor Binding Preference of Enantiomers” (Pharmaceuticals, 2022).

Where two headings read alike, the source gives them in different places.

The subject of this assay is 5637, SH-SY5Y, HMC-3, Hep G2, L929; HaCaT, CaCo-2, MRC-5, BJ cells. Briefly: WST-1 viability assay, summary ranges over groups of cell lines. Type of assay: cell-based. As for the experimental part:
Based on the novelty of the IMBcat compound, we aimed to evaluate its in vitro cytotoxicity in selected model cell lines as well as to determine the toxicity of the IBMcat enantiomers, since both the chemical structure and chirality of compounds could play a role in their bioactivity (Table 2). The cytotoxic profile of the IBMcat was determined by a WST-1 viability assay after 72-h treatment. For this purpose, cell lines derived from distinct tissues, often affected by NPSs, were chosen, i.e., cells of kidney, hepatic, neural, urinary, and intestinal origin as well as keratinocytes and primary fibroblasts (HEK 293T, Hep G2, HMC-3, SH-SY5Y, 5637, CaCo-2, HaCaT, MRC-5, and BJ, respectively). […]
In this study, the following cell lines were used: HEK 293T, Hep G2, HMC-3, SH-SY5Y, 5637, CaCo-2, HaCaT, MRC-5, BJ, and L929. […] The selected cell lines were chosen so that not only primary noncancerous cells are evaluated but also cells derived from tissues, which are the most often affected by novel synthetic drugs, i.e., kidney, liver, urinary bladder, and nervous tissue. […]
The cytotoxicity of IBMCat was evaluated in vitro by using a WST-1 viability assay (Sigma-Aldrich, Saint Louis, MO, USA) based on the transformation of a tetrazolium salt into colored formazan in metabolically active cells. […] After 72 h of additional incubation of the cells, their viability was determined by WST-1. […]

Regarding `CNC(C)C(=O)c1ccc(CC(C)C)cc1.Cl` (centres unmarked) [IBMcat, 4-isobutylmethcathinone hydrochloride], the IC50 – broadly, the point on the concentration scale where inhibition reaches its midpoint – was in the range of 18 to 65 µM (5637, SH-SY5Y, HMC-3 and Hep G2 cells, after 72 h, read-out: IC50 values (range over cell lines)); 329 to 749 µM (HaCaT, CaCo-2, MRC-5 and BJ cells, 72 h, racemate and enantiomers, read-out: IC50 (range over cell lines)).
